We go through 30 compounds from patent US10196364B2, “Pyrimidine carboxamides as sodium channel blockers” (Purdue Pharma L.P., priority 2013, dated 2019).

Chain of human Nav1.7 (Q15858 1-1977 isoform Q15858-3): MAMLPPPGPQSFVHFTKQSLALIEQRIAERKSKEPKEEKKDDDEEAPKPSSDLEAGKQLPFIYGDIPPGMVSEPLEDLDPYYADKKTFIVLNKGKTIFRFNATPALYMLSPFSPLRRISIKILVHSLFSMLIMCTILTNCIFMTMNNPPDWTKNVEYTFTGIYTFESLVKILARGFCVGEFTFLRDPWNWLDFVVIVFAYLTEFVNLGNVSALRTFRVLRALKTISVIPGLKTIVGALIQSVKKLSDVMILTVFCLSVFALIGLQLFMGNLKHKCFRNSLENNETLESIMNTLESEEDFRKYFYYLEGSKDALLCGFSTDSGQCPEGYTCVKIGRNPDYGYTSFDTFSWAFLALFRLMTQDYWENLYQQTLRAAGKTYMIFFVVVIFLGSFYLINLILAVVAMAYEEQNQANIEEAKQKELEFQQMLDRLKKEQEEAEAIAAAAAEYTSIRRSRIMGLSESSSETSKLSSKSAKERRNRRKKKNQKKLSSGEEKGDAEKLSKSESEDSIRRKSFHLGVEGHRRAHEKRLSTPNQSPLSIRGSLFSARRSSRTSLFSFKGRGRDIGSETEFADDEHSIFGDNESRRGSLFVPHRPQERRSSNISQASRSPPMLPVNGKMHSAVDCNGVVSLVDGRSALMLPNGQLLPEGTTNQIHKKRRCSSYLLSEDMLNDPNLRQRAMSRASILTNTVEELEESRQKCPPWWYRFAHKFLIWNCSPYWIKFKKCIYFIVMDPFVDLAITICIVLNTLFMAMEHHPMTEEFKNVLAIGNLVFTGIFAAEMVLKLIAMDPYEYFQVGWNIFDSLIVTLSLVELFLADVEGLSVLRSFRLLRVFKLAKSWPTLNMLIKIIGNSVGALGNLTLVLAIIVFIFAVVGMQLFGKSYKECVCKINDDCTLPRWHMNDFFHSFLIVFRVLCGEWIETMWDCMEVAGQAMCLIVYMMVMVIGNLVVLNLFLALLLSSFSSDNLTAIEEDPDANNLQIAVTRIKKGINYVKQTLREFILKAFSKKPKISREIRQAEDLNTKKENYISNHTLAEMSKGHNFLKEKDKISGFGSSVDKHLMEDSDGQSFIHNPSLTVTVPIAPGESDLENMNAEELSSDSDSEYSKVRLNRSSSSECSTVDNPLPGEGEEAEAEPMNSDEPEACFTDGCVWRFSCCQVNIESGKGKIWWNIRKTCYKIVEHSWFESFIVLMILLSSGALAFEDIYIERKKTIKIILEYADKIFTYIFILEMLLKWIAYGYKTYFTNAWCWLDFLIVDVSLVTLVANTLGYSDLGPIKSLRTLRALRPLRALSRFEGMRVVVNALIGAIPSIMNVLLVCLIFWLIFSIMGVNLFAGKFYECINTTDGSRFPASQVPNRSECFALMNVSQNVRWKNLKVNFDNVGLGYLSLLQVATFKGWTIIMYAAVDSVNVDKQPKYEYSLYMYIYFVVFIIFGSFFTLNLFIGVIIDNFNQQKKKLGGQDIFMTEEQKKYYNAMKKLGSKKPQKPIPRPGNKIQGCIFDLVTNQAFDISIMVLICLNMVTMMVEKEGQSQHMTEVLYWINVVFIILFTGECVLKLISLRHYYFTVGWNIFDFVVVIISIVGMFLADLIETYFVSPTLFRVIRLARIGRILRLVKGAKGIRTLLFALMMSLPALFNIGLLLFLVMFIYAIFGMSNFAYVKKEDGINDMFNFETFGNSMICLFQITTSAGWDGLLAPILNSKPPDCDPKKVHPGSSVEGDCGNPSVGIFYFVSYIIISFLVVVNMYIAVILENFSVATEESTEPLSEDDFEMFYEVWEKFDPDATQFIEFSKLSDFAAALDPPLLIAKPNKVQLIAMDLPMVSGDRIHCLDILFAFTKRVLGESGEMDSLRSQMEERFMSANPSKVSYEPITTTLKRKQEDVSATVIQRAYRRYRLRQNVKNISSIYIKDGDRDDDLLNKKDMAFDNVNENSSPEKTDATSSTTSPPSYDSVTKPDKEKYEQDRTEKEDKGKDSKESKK

This test concerns the target human Nav1.7 (Homo sapiens, UniProt Q15858). The experiment in a line: FLIPR sodium dye assay (CoroNa Green AM Na+ dye, primary fluorescence assay) in recombinant Nav1.7/HEK293 cells. The class given is cell-based. The settings on record: Table 6; CoroNa Green AM Na+ dye primary fluorescence assay; read-out: Nav1.7 Activity (μM) FLIPR assay IC50.
`CCN(CC)Cc1cc(C(F)(F)F)ccc1Oc1ccc(-c2nc(N[C@H]3CCNC3=O)cc(C(N)=O)n2)cc1` [Cpd No. 208, (S)-2-(4-(2-((diethylamino)-methyl)-4-(trifluoromethyl)-phenoxy)phenyl)-6-((2-oxopyrrolidin-3-yl)amino)pyrimidine-4-carboxamide]: the 50% inhibitory concentration (IC50) turned out to be 0.75 µM.
Regarding `C[C@H](Nc1cc(C(N)=O)nc(-c2cc(F)c(OCc3ccccc3)cc2F)n1)C(N)=O` [compound 105, (S)-6-((1-amino-1-oxopropan-2-yl)amino)-2-(4-(benzyloxy)-2,5-difluorophenyl)pyrimidine-4-carboxamide], the IC50 is greater than 20 µM.
As for `NC(=O)c1cc(N[C@H]2CCNC2=O)nc(-c2ccc(Oc3ccc(OCC(F)(F)F)cn3)cc2)n1` [compound 144, (S)-6-((2-oxopyrrolidin-3-yl)amino)-2-(4-((5-(2,2,2-trifluoroethoxy)pyridin-2-yl)oxy)phenyl)pyrimidine-4-carboxamide], the IC50 is 1.18 µM.
For `COc1cnc(Oc2ccc(-c3nc(N[C@H]4CCNC4=O)cc(C(N)=O)n3)cc2)cn1` [Cpd No. 197, (S)-2-(4-((5-methoxypyrazin-2-yl)oxy)phenyl)-6-((2-oxopyrrolidin-3-yl)amino)-pyrimidine-4-carboxamide], the IC50 was determined as 5.07 µM.
As for `C[C@H](Nc1cc(C(N)=O)nc(N2CC3CC2CN3c2ccc(F)cc2)n1)C(N)=O` (stereo partly drawn) [compound 106, 6-(((S)-1-amino-1-oxopropan-2-yl)amino)-2-(5-(4-fluorophenyl)-2,5-diazabicyclo[2.2.1]heptan-2-yl)pyrimidine-4-carboxamide], the IC50 was 10 to 20 µM.
Consider `NC(=O)c1cc(N[C@H]2CCNC2=O)nc(N2CC3CC2CN3Cc2ccc(F)cc2)n1` (stereo partly drawn) [compound 139, 2-(5-(4-fluorobenzyl)-2,5-diazabicyclo[2.2.1]heptan-2-yl)-6-(((S)-2-oxopyrrolidin-3-yl)amino)pyrimidine-4-carboxamide], for which the IC50 was greater than 20 µM.
For `C[C@H](Nc1cc(C(N)=O)nc(N2CCC(Cc3ccccc3)CC2)n1)C(N)=O` [compound 107, (S)-6-((1-amino-1-oxopropan-2-yl)amino)-2-(4-benzylpiperidin-1-yl)pyrimidine-4-carboxamide], the IC50 is 1.95 µM.
As for `C[C@H](Oc1cc(C(N)=O)nc(-c2ccc(Oc3ccc(C(F)(F)F)cn3)cc2)n1)C(=O)NCCN1CCCC1` [compound 147, (S)-6-((1-oxo-1-((2-(pyrrolidin-1-yl)ethyl)amino)propan-2-yl)oxy)-2-(4-((5-(trifluoromethyl)pyridin-2-yl)oxy)phenyl)pyrimidine-4-carboxamide], the half-inhibitory concentration (IC50) was 0.54 µM.
For `NC(=O)c1cc(N[C@H]2CCNC2=O)nc(-c2ccc(Oc3ccc(F)cc3)c(CN3CCCCC3)c2)n1` [compound 143, (S)-2-(4-(4-fluorophenoxy)-3-(piperidin-1-ylmethyl)phenyl)-6-((2-oxopyrrolidin-3-yl)amino)pyrimidine-4-carboxamide] the value was 1.3 µM; for `C[C@H](Nc1cc(C(N)=O)nc(N2C3CCC2CC(Oc2ccc(C(F)(F)F)cc2-c2ccncc2)C3)n1)C(N)=O` (stereo partly drawn) [compound 155, 6-(((S)-1-amino-1-oxopropan-2-yl)amino)-2-(3-(2-(pyridin-4-yl)-4-(trifluoromethyl)phenoxy)-8-azabicyclo[3.2.1]octan-8-yl)pyrimidine-4-carboxamide], 4.1 µM; for `NC(=O)c1cc(N[C@H]2CCNC2=O)nc(-c2ccc(Oc3cnc(OCC(F)(F)F)cn3)cc2)n1` [compound 151, (S)-6-((2-oxopyrrolidin-3-yl)amino)-2-(4-((5-(2,2,2-trifluoroethoxy)pyrazin-2-yl)oxy)phenyl)pyrimidine-4-carboxamide], 0.35 µM.
For `NC(=O)c1cc(N[C@H]2CCNC2=O)nc(-c2ccc(Oc3ccc(C(F)(F)F)cc3)cc2)n1` [compound 114, (S)-6-((2-oxopyrrolidin-3-yl)amino)-2-(4-(4-(trifluoromethyl)phenoxy)phenyl)pyrimidine-4-carboxamide], the IC50 came to 0.33 µM.
For the compound `NC(=O)c1cc(N[C@H]2CCNC2=O)nc(-c2ccc(Oc3ccc(C(F)(F)F)cc3)cc2CN2CCCCC2)n1` [Cpd No. 202, (S)-6-((2-oxopyrrolidin-3-yl)amino)-2-(2-(piperidin-1-ylmethyl)-4-(4-(trifluoromethyl)-phenoxy)phenyl)pyrimidine-4-carboxamide], the half-inhibitory concentration (IC50) was 0.72 µM.
As for `C[C@H](Nc1cc(C(N)=O)nc(-c2ccc(Oc3ccc4c(c3)CCC4)cc2)n1)C(N)=O` [compound 109, (S)-6-((1-amino-1-oxopropan-2-yl)amino)-2-(4-((2,3-dihydro-1H-inden-5-yl)oxy)phenyl)pyrimidine-4-carboxamide], the half-maximal inhibitory concentration (IC50) came to 0.11 µM.
Consider `NC(=O)c1cc(-c2ccc(Oc3ccc(OC(F)(F)F)cc3)cc2)nc(N2CCC[C@H]2C(N)=O)n1` [compound 126, (S)-2-(2-carbamoylpyrrolidin-1-yl)-6-(4-(4-(trifluoromethoxy)phenoxy)phenyl)pyrimidine-4-carboxamide], for which the IC50 is greater than 20 µM.
For `NC(=O)c1cc(N[C@H]2CCNC2=O)nc(N2CC3CC2CN3Cc2ccc(OC(F)(F)F)cc2)n1` (stereo partly drawn) [compound 136, 6-(((S)-2-oxopyrrolidin-3-yl)amino)-2-(5-(4-(trifluoromethoxy)benzyl)-2,5-diazabicyclo[2.2.1]heptan-2-yl)pyrimidine-4-carboxamide], the 50% inhibitory concentration (IC50) was greater than 20 µM.
Take `NC(=O)c1cc(N[C@H]2CCNC2=O)nc(-c2ccc(Oc3ccc(C(F)(F)F)cc3CN3CCOCC3)cc2)n1` [Cpd No. 192, (S)-2-(4-(2-(morpholinomethyl)-4-(trifluoromethyl)phenoxy)-phenyl)-6-((2-oxopyrrolidin-3-yl)amino)pyrimidine-4-carboxamide]: the concentration for half-maximal inhibition (IC50) amounted to 1.34 µM.
The same measure for `COCc1cc(Oc2ccc(F)cc2)ccc1-c1nc(N[C@@H](C)C(N)=O)cc(C(N)=O)n1` [compound 130, (S)-6-((1-amino-1-oxopropan-2-yl)amino)-2-(4-(4-fluorophenoxy)-2-(methoxymethyl)phenyl)pyrimidine-4-carboxamide]: 1.77 µM; for `N#Cc1cc(C(F)(F)F)ccc1O[C@H]1C[C@H]2CC[C@@H](C1)N2c1nc(N[C@H]2CCNC2=O)cc(C(N)=O)n1` [Cpd No. 204, 2-((1R,3S,5S)-3-(2-cyano-4-(trifluoromethyl)phenoxy)-8-azabicyclo-[3.2.1]octan-8-yl)-6-(((S)-2-oxopyrrolidin-3-yl)amino)pyrimidine-4-carboxamide]: greater than 20 µM.
With `NC(=O)c1cc(N[C@H]2CCNC2=O)nc(-c2ccc(Oc3ccc(C(F)(F)F)nn3)cc2)n1` [compound 152, (S)-6-((2-oxopyrrolidin-3-yl)amino)-2-(4-((6-(trifluoromethyl)pyridazin-3-yl)oxy)phenyl)pyrimidine-4-carboxamide], the IC50 is greater than 20 µM.
In the case of `NC(=O)c1cc(N[C@H]2CCNC2=O)nc(-c2ccc(Oc3ccc(C(F)(F)F)cc3CN3CCCC3)cc2)n1` [compound 169, (S)-6-((2-oxopyrrolidin-3-yl)amino)-2-(4-(2-(pyrrolidin-1-ylmethyl)-4-(trifluoromethyl)phenoxy)phenyl) pyrimidine-4-carboxamide], the concentration for half-maximal inhibition (IC50) was determined as 0.74 µM.
On to `NC(=O)c1cc(O[C@H]2CCNC2=O)nc(-c2ccc(Oc3ccc(F)cc3)cc2)n1` [compound 118, (S)-2-(4-(4-fluorophenoxy)phenyl)-6-((2-oxopyrrolidin-3-yl)oxy)pyrimidine-4-carboxamide], for which the concentration for half-maximal inhibition (IC50) amounted to 0.35 µM.
For `C[C@H](Nc1cc(C(N)=O)nc(-c2ccc(Oc3cnc(C4CC4)cn3)cc2)n1)C(N)=O` [Cpd No. 195, (S)-6-((1-amino-1-oxopropan-2-yl)amino)-2-(4-((5-cyclopropyl-pyrazin-2-yl)oxy)phenyl)-pyrimidine-4-carboxamide] the value was greater than 20 µM; for `NC(=O)c1cc(NCc2ncc[nH]2)nc(-c2ccc(Oc3ccc(F)cc3)cc2)n1` [Cpd No. 179, 6-(((1H-imidazol-2-yl)methyl)amino)-2-(4-(4-fluorophenoxy)phenyl)-pyrimidine-4-carboxamide], greater than 20 µM; for `NC(=O)c1cc(N[C@H]2CCNC2=O)nc(-c2ccc(Oc3ccc(F)cc3)cc2Cn2cncn2)n1` [compound 164, (S)-2-(2-((1H-1,2,4-triazol-1-yl)methyl)-4-(4-fluorophenoxy)phenyl)-6-((2-oxopyrrolidin-3-yl)amino)pyrimidine-4-carboxamide], 1.45 µM.
Consider `Cc1cnc(Oc2ccc(-c3nc(N[C@@H](C)C(N)=O)cc(C(N)=O)n3)cc2)cn1` [Cpd No. 196, (S)-6-((1-amino-1-oxopropan-2-yl)amino)-2-(4-((5-methyl-pyrazin-2-yl)oxy)phenyl)-pyrimidine-4-carboxamide], for which the concentration for half-maximal inhibition (IC50) is greater than 20 µM.
In the case of `NC(=O)c1cc(N[C@H]2CCNC2=O)nc(-c2ccc(Oc3ccc(C(F)(F)F)cc3CN3CCCCC3)cc2)n1` [Cpd No. 194, (S)-6-((2-oxopyrrolidin-3-yl)amino)-2-(4-(2-(piperidin-1-ylmethyl)-4-(trifluoromethyl)-phenoxy)phenyl)pyrimidine-4-carboxamide], the IC50 came out at 2.18 µM.
Take `NC(=O)c1cc(N[C@H]2CCNC2=O)nc(-c2ccc(Oc3cnc(C4CC4)cn3)cc2)n1` [compound 165, (S)-2-(4-((5-cyclopropylpyrazin-2-yl)oxy)phenyl)-6-((2-oxopyrrolidin-3-yl)amino)pyrimidine-4-carboxamide]: the IC50 stood at 1.19 µM.
Regarding `O=C(NCCN1CCCC1)c1cc(N[C@H]2CCNC2=O)nc(-c2ccc(Oc3ccc(C(F)(F)F)cn3)cc2)n1` [compound 137, (S)-6-((2-oxopyrrolidin-3-yl)amino)-N-(2-(pyrrolidin-1-yl)ethyl)-2-(4-((5-(trifluoromethyl)pyridin-2-yl)oxy)phenyl)pyrimidine-4-carboxamide], the half-inhibitory concentration (IC50) is 4.17 µM.
For `N#Cc1ccc(Oc2ccc(-c3nc(N[C@H]4CCNC4=O)cc(C(N)=O)n3)cc2)cc1` [compound 113, (S)-2-(4-(4-cyanophenoxy)phenyl)-6-((2-oxopyrrolidin-3-yl)amino)pyrimidine-4-carboxamide] the value was 0.29 µM.
